How the values were obtained:
[1] = system: L1210 (lymphocytic leukemia); assay: Disk diffusion soft agar colony formation assay, L1210; format: cell-based, murine; conditions: 7.5 μg/ml
Excerpt: (§1) An in vitro cell-based assay was employed to identify solid tumor selectivity for compound IV. The differential cytotoxicity (Valeriote, F.; Grieshaber, C. K.; Media, J.; Pietraszkiewicz, H.; Hoffman, J.; Pan, M.; McLaughlin, S. J. Exp. Ther. Oncol. 2002, 2, 228-236) is expressed by observing a zone differential between any solid tumor cell (Colon38, ColonH116, Lung H125) and either leukemia cells (L1210 or CEM) or normal cells (CFU-GM). A sample is designated as “solid tumor selective” if (zone units of solid tumor—normal cells or leukemia cells) is greater than 250 units.
(§2) Colon 38 gives a good monodispersed cell suspension with mechanical disruption from a mouse tumor. […]
(§3) All of the human cancer cell lines are maintained in cell culture. […] The cells are passed through an 18-gauge needle twice and the monodispersed suspension counted. […]
(§4) A volume of 15 μl of each sample is dropped onto a 6.5 mm disk (Baxter filter disks). […] The plates are incubated for 7-10 days (depending upon the cell type) and examined by an inverted stereo-microscope (10×) for measurement of the zone of inhibition measured from the edge of the filter disk to the beginning of normal-sized colony formation. […] At some dilution, quantifiable cytotoxicity is invariably obtained.
(§5) • a Measured in zone units: 200 zone units=6 mm. […]

[2] = system: CFU-GM-m (colony-forming unit-granulocyte macrophage; normal hematopoietic); assay: Disk diffusion soft agar colony formation assay, CFU-GM-m; format: cell-based, murine; conditions: 7.5 μg/ml
Excerpt: as §1, §2, §3, §4, §5

[3] = system: HCT-116 cells in SCID mice; assay: In vivo therapeutic trials; conditions: for time taken for tumor volume to reach 4-times the initial volume: control 7 days
Method: For the in vivo studies HCT-116 cells in SCID mice will be used. Individual mouse body weights for each experiment are within 5 g and all mice are over 17 g at the start of therapy. The mice are supplied food and water ad libidum. The animals are pooled, implanted subcutaneously with 10^7 cultured cells, and pooled again before distribution to treatment and control groups. Chemotherapy is started when the tumors reach a measurable size (about 150 mm^3). Initially, a 1 hour intravenous infusion will be given and the whole animal toxicity and therapeutic effect correlated with the pharmacology studies described above. Dosage levels are usually closely spaced (2-fold increments or 0.5 decrements). All drugs will be administered intravenously. Mice are killed when their tumors reach 1500 mm^3. Tumor weights are estimated from 2-dimensional caliper measurements done twice a week: Tumor Weight (mg)=(a×b^2)/2 • where a and b are the tumor length and width, respectively, in mm.
For this in vivo study with compound IV, 4 mice were in the control group, 4 in the 2 mg/ml and 1 in the 3 mg/ml groups.
The data were analyzed in terms of time taken for tumor volume to reach 4-times the initial volume. For control tumors this was 7 days, for the 2 mg/ml (0.5 mg/mouse; 25 mg/kg) dose, this was 10 days; and for the 3 mg/ml (0.75 mg/mouse; […]), this was 15 days. Thus, at the maximum tolerated dose there was a T/C of about 50%.

[4] = system: C38 (colon adenocarcinoma); assay: Disk diffusion soft agar colony formation assay, C38; format: cell-based, murine
Excerpt: as §1, §2, §3, §4, §5

[5] = system: CEM (leukemia); assay: Disk diffusion soft agar colony formation assay, CEM; format: cell-based, human
Excerpt: as §1, §2, §3, §4, §5

[6] = system: CFU-GM-h (colony-forming unit-granulocyte macrophage; normal hematopoietic); assay: Disk diffusion soft agar colony formation assay, CFU-GM-h; format: cell-based, human; conditions: 7.5 μg/ml
Excerpt: as §1, §2, §3, §4, §5

[7] = system: H116 human colon cells; assay: Clonogenic assay; format: cell-based
Method: Concentration- and time-survival studies will be carried out against HCT-116 cells. HCT-116 cells are seeded at 200 to 20,000 cells in 60 mm dishes. Drug is added to the medium (RPMI+10% FBS) at concentrations of 1 mg/ml and 10-fold dilutions thereof. […] The dishes are incubated for 7 days, media removed and the colonies stained with methylene blue. Colonies containing 50 cells or more are counted. The results are normalized to an untreated control. Plating efficiency for the untreated cells is about 90%. Repeat experiments are carried out to define the cell survival range between 100% and […]. Subsequently, a concentration is chosen that yields a survival of 10^−2 at 24 hr and time-survival studies carried out from 0 to 48 hr. Both concentration- and time-survival curves are constructed so that AUC values can be calculated. A comparison of tumor to normal provides a theoretical basis for determining whether a compound might be active in therapeutic trials in vivo.

[8] = mouse, in vivo
Method: In this dose calculation stage, the projected starting dose is based primarily on the solubility of the new compound. Potential doses are calculated on the basis of blood volume and total body water in mice.
The starting dose is selected on the basis of solubility of the compound in biologically compatible solvents, and the potency derived from in vitro studies.
To start, one normal SCID mouse is dosed intravenously with the solubilized/formulated compound via a one-hour infusion at a maximum dose of 20 mg/mL. The volume infused is 0.25 ml over the one-hour period. If the animal survives the dosing period, clinical signs are noted, and the animal is sacrificed at two hours post infusion and blood collected for subsequent analytical determinations. Two additional SCID mice are then similarly infused with the compound, one being sacrificed at the end of infusion and blood collected and analyzed for drug concentration. The third animal is housed for 2 weeks to ascertain survival, and then euthanized. During the two-week observation period, the animal will be monitored for clinical signs of distress and euthanized if moribund. The dosing data and pharmacologic information (estimate of half-life) from these three animals will guide the subsequent time-course study by approximating a tolerable dose and clearance of the agent. […]

[9] = system: H125 (lung); assay: Disk diffusion soft agar colony formation assay, H125; format: cell-based, human
Excerpt: as §1, §2, §3, §4, §5

[10] = system: H116 (colon); assay: Disk diffusion soft agar colony formation assay, H116; format: cell-based, human
Excerpt: as §1, §2, §3, §4, §5

[11] = Pharmacokinetics; format: in vivo, male SCID mice bearing H116 tumors; conditions: 18.5 mg/kg
Method: Compound IV was administered at 18.5 mg/kg to male SCID mice bearing H116 tumors.
By 24 h after drug administration, the concentration of compound IV is about 100 ng/ml.

## COc1cc(-c2ccnc3c2C(=O)c2ncc(C)cc2C3=O)ccc1OCCCN [Compound IV]
[1]
  zone of inhibition L1210: 500 zone units
[2]
  zone of inhibition CFU-GMm: 650 zone units
[3]; 2 mg/ml (0.5 mg/mouse; 25 mg/kg) dose
  time taken for tumor volume to reach 4-times the initial volume: 10 days
[3]; 3 mg/ml (0.75 mg/mouse; 38.5 mg/kg)
  time taken for tumor volume to reach 4-times the initial volume: 15 days
[3]; at the maximum tolerated dose
  T/C: about 50%
[4]; 1.9 μg/ml
  zone of inhibition C38: 100 zone units
[4]; 7.5 μg/ml
  zone of inhibition C38: 550 zone units
[5]; 1.9 μg/ml
  zone of inhibition CEM: 150 zone units
[5]; 7.5 μg/ml
  zone of inhibition CEM: 550 zone units
[6]
  zone of inhibition CFU-GMh: 650 zone units
[7]; 7-day continuous exposure
  concentration at which a therapeutic effect would be obtained: ~0.2 µg/mL
[7]; maintained for a 24 h period
  concentration at which a therapeutic effect would be obtained: ~10 µg/mL
[8]; SCID
  Lethal Dose: 50 mg/kg
[8]; 40 mg/kg
  observation after injection: survived but looked shaky right after injection
[9]; 1.9 μg/ml
  zone of inhibition H125: 600 zone units
[9]; 7.5 μg/ml
  zone of inhibition H125: >1000 zone units
[10]; 1.9 μg/ml
  zone of inhibition H116: 350 zone units
[10]; 7.5 μg/ml
  zone of inhibition H116: 800 zone units
[11]; over at least a 2-h period
  concentration attained in the plasma: approximately 1 μg/ml
  concentration attained in the tumor: approximately 1 μg/ml
[11]; male, SCID, mouse, in vivo, 24 h after drug administration, read-out: concentration of compound IV
  concentration at 24 h: ~100 ng/mL

Reference: patent US20060014776A1, “Antitumoral compounds” (Instituto Biomar S.A., priority 2004, published 2006)
